Assay results from patent US20170226120A1, “INHIBITORS OF HIF PROLYL HYDROXYLASE” (MERCK SHARP & DOHME CORP., priority 2014, published 2017).

Key:
[1] = Tissue PK profile in rat (liver and plasma drug level); assay type: in vivo; conditions: 10 mg/kg; for concentration at 4 h: in vivo, po; for Kp at 4 h: liver/plasma, 4 hours after PO dosing at 10 mpk, vehicle 0.5% MC, read-out: liver/plasma ratio
Protocol: The tissue PK profile of compounds described in this application were evaluated in rat. The tissue was harvested 4 hours after PO dosing at 10 mpk (vehicle: 0.5% MC; dose volume: 5 mL/Kg) and the drug level was determined. Shown in Table 1 are compound concentrations of selected examples in rat liver and plasma, as well as liver to plasma drug ratio.

[2] = molecular target: T1, human HIF-PHD2 (Homo sapiens, UniProt Q9GZT9); test: HIF-PHD2 inhibition, time resolved fluorescence assay of HIF-1α peptide hydroxylation; assay type: biochemical; conditions: FLAG-tagged full length PHD2; 0.2 μM 2-oxoglutarate, 0.5 μM HIF-1α peptide
T1 construct: FLAG-tagged full length PHD2 expressed in and purified from baculovirus-infected Sf9 cells; FLAG; made in house; host or cells: baculovirus-infected Sf9 cells
T1 sequence (Q9GZT9 whole entry): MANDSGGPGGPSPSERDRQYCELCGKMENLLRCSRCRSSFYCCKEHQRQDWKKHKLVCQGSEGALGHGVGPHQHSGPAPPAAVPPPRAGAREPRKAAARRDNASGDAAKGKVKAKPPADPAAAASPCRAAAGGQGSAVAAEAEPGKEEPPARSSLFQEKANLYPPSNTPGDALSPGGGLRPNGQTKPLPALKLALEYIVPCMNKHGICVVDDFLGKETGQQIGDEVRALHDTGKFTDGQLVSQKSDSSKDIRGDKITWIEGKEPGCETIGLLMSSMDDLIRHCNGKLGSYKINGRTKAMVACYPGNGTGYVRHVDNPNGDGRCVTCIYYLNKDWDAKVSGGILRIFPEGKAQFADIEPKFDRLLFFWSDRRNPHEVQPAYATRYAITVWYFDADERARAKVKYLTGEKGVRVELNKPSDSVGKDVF
Protocol: To each well of a 384-well plate, 1 μL of test compounds in DMSO (final concentration ranging from 0.3 nM to 10 uM) were added into 20 μl of assay buffer (50 mM Tris pH 7.4/0.01% Tween-20/0.1 mg/ml bovine serum albumin/10 μM ferrous sulfate/1 mM sodium ascorbate/20 μg/ml catalase) containing 0.15 μg/ml FLAG-tagged full length PHD2 expressed in and purified from baculovirus-infected Sf9 cells. After a 5 min preincubation at room temperature, the enzymatic reactions were initiated by the addition of 4 μL of substrates {final concentrations of 0.2 μM 2-oxoglutarate and 0.5 μM HIF-1α peptide biotinyl-[…] […] After incubation for 45 minutes at room temperature, the reactions were terminated by the addition of a 25 μL quench/detection mix to a final concentration of 1 mM ortho-phenanthroline, 0.1 mM EDTA, 0.5 nM anti-(His)6 LANCE reagent (Perkin-Elmer Life Sciences), 100 nM AF647-labeled streptavidin (Invitrogen), and 2 μg/ml (His)6-VHL complex {S. Tan Protein Expr. Purif.

| SMILES | IC50 [2] [nM] | concentration at 4 h ([1]; liver concentration) [nM] | concentration at 4 h ([1]; plasma concentration) [nM] | Kp at 4 h [1] |
| --- | --- | --- | --- | --- |
| O=C(O)CNC(=O)c1c(O)c2c(n(Cc3cc(F)c(F)cc3F)c1=O)COC2 [Example 41, 2-(4-hydroxy-2-oxo-1-(2,4,5-trifluorobenzyl)-1,2,5,7-tetrahydrofuro[3,4-b]pyridine-3-carboxamido)acetic acid] |  | 41400 | 476 | 87.3 |
| O=C(O)CNC(=O)c1c(O)c2c(n(Cc3ccn(-c4ccccc4)n3)c1=O)COC2 [Example 22, 2-(4-hydroxy-2-oxo-1-((1-phenyl-1H-pyrazol-3-yl)methyl)-1,2,5,7-tetrahydrofuro[3,4-b]pyridine-3-carboxamido)acetic acid] |  | 816 | 11.8 | 66.6 |
| O=C(O)CNC(=O)c1c(O)c2c(n(Cc3ccc(F)cc3F)c1=O)COC2 [Example 32, 2-(1-(2,4-difluorobenzyl)-4-hydroxy-2-oxo-1,2,5,7-tetrahydrofuro[3,4-b]pyridine-3-carboxamido)acetic acid] |  | 24800 | 492 | 52.8 |
| O=C(O)CNC(=O)c1c(O)c2c(n(Cc3cnc(C(F)(F)F)s3)c1=O)COC2 [Example 18, 2-(4-hydroxy-2-oxo-1-((2-(trifluoromethyl)thiazol-5-yl)methyl)-1,2,5,7-tetrahydrofuro[3,4-b]pyridine-3-carboxamido)acetic acid] |  | 11800 | 55.9 | 258 |
| O=C(N[C@H](CO)C(=O)O)c1c(O)c2c(n(Cc3ccc(C(F)(F)F)cc3)c1=O)COC2 [Example 1, (R)-3-Hydroxy-2-(4-hydroxy-2-oxo-1-(4-(trifluoromethyl)benzyl)-1,2,5,7-tetrahydrofuro[3,4-b]pyridine-3-carboxamido)propanoic acid] | 59.7 |  |  |  |
| CC(C)(O)c1ccc(Cn2c3c(c(O)c(C(=O)NCC(=O)O)c2=O)COC3)cc1 [Example 5, 2-(4-Hydroxy-1-(4-(2-hydroxypropan-2-yl)benzyl)-2-oxo-1,2,5,7-tetrahydrofuro[3,4-b]pyridine-3-carboxamido)acetic acid] |  | 5600 | 26.7 | 214 |
| O=C(O)CNC(=O)c1c(O)c2c(n(Cc3cnc(C(F)(F)F)cn3)c1=O)COC2 [Example 11, 2-(4-hydroxy-2-oxo-1-((5-(trifluoromethyl)pyrazin-2-yl)methyl)-1,2,5,7-tetrahydrofuro[3,4-b]pyridine-3-carboxamido)acetic acid] |  | 7900 | 22 | 359 |
| O=C(O)CNC(=O)c1c(O)c2c(n(Cc3nc4ccccc4o3)c1=O)COC2 [Example 46, 2-(1-(benzo[d]oxazol-2-ylmethyl)-4-hydroxy-2-oxo-1,2,5,7-tetrahydrofuro[3,4-b]pyridine-3-carboxamido)acetic acid] |  | 2070 | 34.5 | 55 |
| O=C(O)CNC(=O)c1c(O)c2c(n(Cc3ccc(Cl)cc3)c1=O)COC2 [Example 27, 2-(1-(4-chlorobenzyl)-4-hydroxy-2-oxo-1,2,5,7-tetrahydrofuro[3,4-b]pyridine-3-carboxamido)acetic acid] |  | 21500 | 551 | 39.6 |
| O=C(O)CNC(=O)c1c(O)c2c(n(Cc3nc(C(F)(F)F)cs3)c1=O)COC2 [Example 21, 2-(4-hydroxy-2-oxo-1-((4-(trifluoromethyl)thiazol-2-yl)methyl)-1,2,5,7-tetrahydrofuro[3,4-b]pyridine-3-carboxamido)acetic acid] |  | 4770 | 8 | 587 |
| O=C(O)CNC(=O)c1c(O)c2c(n(Cc3ncc(C(F)(F)F)cn3)c1=O)COC2 [Example 9, 2-(4-hydroxy-2-oxo-1-((5-(trifluoromethyl)pyrimidin-2-yl)methyl)-1,2,5,7-tetrahydrofuro[3,4-b]pyridine-3-carboxamido)acetic acid] |  | 1810 | 37.6 | 43.6 |
| O=C(O)CNC(=O)c1c(O)c2c(n(Cc3cnc(C(F)(F)F)nc3)c1=O)COC2 [Example 12, 2-(4-hydroxy-2-oxo-1-((2-(trifluoromethyl)pyrimidin-5-yl)methyl)-1,2,5,7-tctrahydrofuro[3,4-b]pyridine-3-carboxamido)acetic acid] |  | 775 | 12.3 | 67.3 |

More lines, main results first:

| IC50 [2] [nM] | SMILES | concentration at 4 h ([1]; liver concentration) [nM] | concentration at 4 h ([1]; plasma concentration) [nM] | Kp at 4 h [1] |
| --- | --- | --- | --- | --- |
| 7.4 | O=C(O)CNC(=O)c1c(O)c2c(n(Cc3cnco3)c1=O)COC2 [Example 20, 2-(4-hydroxy-1-(oxazol-5-ylmethyl)-2-oxo-1,2,5,7-tetrahydrofuro[3,4-b]pyridine-3-carboxamido)acetic acid] |  |  |  |
| 3.3 | O=C(O)CNC(=O)c1c(O)c2c(n(Cc3cccnc3)c1=O)COC2 [Example 37, 3-((3-((carboxymethyl)carbamoyl)-4-hydroxy-2-oxofuro[3,4-b]pyridin-1(2H,5H,7H)-yl)methyl)pyridin-1-ium chloride] |  |  |  |
| 6.8 | COc1ccc(Cn2c3c(c(O)c(C(=O)NCC(=O)O)c2=O)COC3)cn1 [Example 51, 2-(4-hydroxy-1-((6-methoxypyridin-3-yl)methyl)-2-oxo-1,2,5,7-tetrahydrofuro[3,4-b]pyridine-3-carboxamido)acetic acid] |  |  |  |
| 5.4 | CCc1ccc(Cn2c3c(c(O)c(C(=O)NCC(=O)O)c2=O)COC3)cn1 [Example 63, 2-(4-Hydroxy-2-oxo-1-((6-ethylpyridin-3-yl)methyl)-1,2,5,7-tetrahydrofuro[3,4-b]pyridine-3-carboxamido)acetic acid] |  |  |  |
| 9.2 | O=C(O)CNC(=O)c1c(O)c2c(n(Cc3cc[nH]n3)c1=O)COC2 [Example 4, 2-(1-((1H-pyrazol-3-yl)methyl)-4-hydroxy-2-oxo-1,2,5,7-tetrahydrofuro[3,4-b]pyridine-3-carboxamido)acetic acid] |  |  |  |
| 10 | CNC(=O)c1ccc(Cn2c3c(c(O)c(C(=O)NCC(=O)O)c2=O)COC3)cc1 [Example 23, 2-(4-hydroxy-1-(4-(methylcarbamoyl)benzyl)-2-oxo-1,2,5,7-tetrahydrofuro[3,4-b]pyridine-3-carboxamido)acetic acid] |  |  |  |
| 2.9 | CC(C)c1ccc(Cn2c3c(c(O)c(C(=O)NCC(=O)O)c2=O)COC3)cc1 [Example 29, 2-(4-hydroxy-1-(4-isopropylbenzyl)-2-oxo-1,2,5,7-tetrahydrofuro[3,4-b]pyridine-3-carboxamido)acetic acid] |  |  |  |
| 4 | CC(C)(C)c1ccc(Cn2c3c(c(O)c(C(=O)NCC(=O)O)c2=O)COC3)cc1 [Example 30, 2-(1-(4-(tert-butyl)benzyl)-4-hydroxy-2-oxo-1,2,5,7-tetrahydrofuro[3,4-b]pyridine-3-carboxamido)acetic acid] |  |  |  |
| 9.2 | O=C(O)CNC(=O)c1c(O)c2c(n(Cc3ccccc3)c1=O)COC2 [Example 25, 2-(1-benzyl-4-hydroxy-2-oxo-1,2,5,7-tetrahydrofuro[3,4-b]pyridine-3-carboxamido)acetic acid] |  |  |  |
| 5.2 | Cc1ncsc1Cn1c2c(c(O)c(C(=O)NCC(=O)O)c1=O)COC2 [Example 8, 2-(4-hydroxy-1-((4-methylthiazol-5-yl)methyl)-2-oxo-1,2,5,7-tetrahydrofuro[3,4-b]pyridine-3-carboxamido)acetic acid] |  |  |  |
| 2.7 | O=C(O)CNC(=O)c1c(O)c2c(n(Cc3ccc(F)c(F)c3)c1=O)COC2 [Example 31, 2-(1-(3,4-difluorobenzyl)-4-hydroxy-2-oxo-1,2,5,7-tetrahydrofuro[3,4-b]pyridine-3-carboxamido)acetic acid] |  |  |  |
| 2.5 | N#Cc1cccc(Cn2c3c(c(O)c(C(=O)NCC(=O)O)c2=O)COC3)c1 [Example 34, 2-(1-(3-cyanobenzyl)-4-hydroxy-2-oxo-1,2,5,7-tetrahydrofuro[3,4-b]pyridine-3-carboxamido)acetic acid] |  |  |  |
| 5 | Cc1cc(Cn2c3c(c(O)c(C(=O)NCC(=O)O)c2=O)COC3)ccc1Cl [Example 50, 2-(1-(4-chloro-3-methylbenzyl)-4-hydroxy-2-oxo-1,2,5,7-tetrahydrofuro[3,4-b]pyridine-3-carboxamido)acetic acid] |  |  |  |
| 9.7 | O=C(O)CNC(=O)c1c(O)c2c(n(Cc3ncco3)c1=O)COC2 [Example 15, 2-(4-hydroxy-1-(oxazol-2-ylmethyl)-2-oxo-1,2,5,7-tetrahydrofuro[3,4-b]pyridine-3-carboxamido)acetic acid] |  |  |  |
| 4.6 | O=C(O)CNC(=O)c1c(O)c2c(n(Cc3ccccc3F)c1=O)COC2 [Example 35, 2-(1-(2-fluorobenzyl)-4-hydroxy-2-oxo-1,2,5,7-tetrahydrofuro[3,4-b]pyridine-3-carboxamido)acetic acid] |  |  |  |
